MIC data for 16 molecules are collected here from patent publication US20040110802A1, “Antibacterial benzoic acid derivatives” (priority 2002, published 2004).

SMILES strings stand for the structures. Converted amounts (≈) assume the structure as drawn.

The subject of this experiment is SAUR 9218. Nature of the experiment: MIC Test Method, standard agar dilution. It counts as cell-based. The note with it: agar dilution, Mueller Hinton agar, incubated overnight at 35° C.; lowest concentration that inhibits visible growth; read-out: SAUR 9218 MIC. In outline:
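Agar dilution in Mueller Hinton agar with serial 2-fold compound dilutions. Staphylococcus aureus strain 9218 spotted at approximately 10^4 to 10^5 cells per spot, incubated overnight at 35 °C; MIC (μg/ml) is the lowest concentration preventing visible growth.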
Background: In agar dilution the substance is mixed into plates at graded concentrations.
Take `Cn1c(C(=O)Nc2ccc(C#N)cc2C(=O)O)cc2cccc(OCCCOc3ccccc3)c21`: the minimal inhibitory concentration (MIC) (commonly the least concentration at which growth counts as inhibited) is 0.125 µg/mL (≈ 0.266 µM).
In the case of `Cn1c(C(=O)Nc2ccc(Cl)cc2C(=O)O)cc2ccccc21`, the minimal inhibitory concentration (MIC) turned out to be 4 µg/mL (≈ 12.2 µM).
Under `N#Cc1ccc(NC(=O)c2ccc(-c3ccccc3C(F)(F)F)nn2)c(C(=O)O)c1` stands 16 µg/mL (≈ 38.8 µM); under `N#Cc1ccc(NC(=O)c2noc3cc(-c4ccccc4C(F)(F)F)ccc23)c(C(=O)O)c1`, 0.125 µg/mL (≈ 0.277 µM).
The figure for `CC(C)CC(=O)Nc1cccc2cc(C(=O)Nc3ccc(C#N)cc3C(=O)O)[nH]c12` is 2 µg/mL (≈ 4.95 µM).
As for `COCCn1c(C(=O)Nc2ccc(C#N)cc2C(=O)O)cc2ccccc21`, the MIC is 0.5 µg/mL (≈ 1.38 µM).
Under `CCC(C)Sc1cnc(C(=O)Nc2ccc(Cl)cc2C(=O)O)cn1` (stereo not shown) stands 0.25 µg/mL (≈ 0.683 µM).
Under `CN(C(=O)Nc1ccc2cc(C(=O)Nc3ccc(C#N)cc3C(=O)O)n(C)c2c1)c1ccccc1` stands 0.5 µg/mL (≈ 1.07 µM); under `Cc1sc(C(=O)Nc2ccc(C#N)cc2C(=O)O)cc1S(=O)(=O)N(C)CCC#N`, 128 µg/mL (≈ 296 µM).
With `CC(C)CSc1cnc(C(=O)Nc2ccc(C#N)cc2C(=O)O)cn1`, the MIC turned out to be 0.25 µg/mL (≈ 0.701 µM).
The figure for `CN(c1ccc(Cl)cc1)S(=O)(=O)c1ccc(C(=O)Nc2ccc(Br)cc2C(=O)O)s1` is 2 µg/mL (≈ 3.77 µM); for `COCOCC(O)C(Cc1cnc(C(=O)Nc2ccc(Br)cc2C(=O)O)cn1)OC` (stereo not shown) it is 128 µg/mL (≈ 264 µM).
The figure for `Cn1c(C(=O)Nc2ccc(C#N)cc2C(=O)O)cc2cccc(OC3CCC3)c21` is 0.125 µg/mL (≈ 0.321 µM); for `CCCCN1C(=O)c2ccc(C(=O)Nc3ccc(C#N)cc3C(=O)O)cc2C1=O` it is 4 µg/mL (≈ 10.2 µM); for `Cc1sc(C(=O)Nc2ccc(Br)cc2C(=O)O)cc1S(=O)(=O)Nc1ccc(F)c(Cl)c1` it is 8 µg/mL (≈ 14.6 µM).
Under `CCCCCSc1ccc(C(=O)Nc2ccc(Br)cc2C(=O)O)nn1` stands 0.03 µg/mL (≈ 0.0707 µM).
